Data published in paper PMC5578999, “Novel quinolone chalcones targeting colchicine-binding pocket kill multidrug-resistant cancer cells by inhibiting tubulin activity and MRP1 function” (Scientific Reports, 2017).

Key:
Format in all cases: cell-based
MCF 10AT1 = assay: SRB cell survival, MCF 10A isogenic lines; details: 0.39 μmol/L; MCF 10AT1 (premalignant)
Experimental: (§1) and MCF10AT1 cells were cultured in Dulbecco's Modified Eagle's Medium/Ham's Nutrient Mixture F-12 (DME/F12) supplemented with 10% (volume/volume) FBS , 100 μg/ml streptom ycin and 100 units/ml penicillin, antim ycotic solution, 0.5 μg/ml hydrocortisone, 10 ng/ml human epiderm al growth factor (hEGF) and 5 μg/ml insulin, whereas MCF10CA1a cell line was cultured in DM EM supplemented with 10% FBS (volume/volume). KB-3- 1, parental human epidermoid carcinoma cell line and KB-C2, an isogenic MDR1- overexpressing drug-resistant cell line, were kindl y provided b y Dr. Amit K Tiwari, the Universit y of Toledo, OH.
(§2) Parental HEK293 and M RP1- overexpressing HEK293- MRP1 isogenic cel ls were kind gifts of Dr. Susan Cole (Queen’s Universit y, Kingston, Ontario, Canada). The pacl itaxel-resistant MDA-MB-231TaxR cell line was generated in house b y culturing MDA-MB-231 cells (purchased from ATCC and authen ticated ) in the gradual l y incr easi ng con centr ations of pacl itax el until the concentration reached to 100 nM. Cell line authentication was carried out by Genetica DNA Laboratories (Burlington, NC) using a short tandem repeat (STR) profiling method (March 2015; […]
(§3) Cell viability, com binational i ndex and cell synchronization
(§4) Cell viability and proliferation were ex amined using a s ulforhodamine B (SRB) assa y as described previousl y (Hu et al., 2008). IC 50 values were calculat ed from si gmoidal dose-response cu rves gen erat ed b y at least two indepen dent ex periments , with each quadruplicate samples, using GraphPad Prism v.5.04 software (GraphPad Software, Inc, La J olla, CA). For combinational experiments on the KB -C-2 cells, CTR compounds and pacli taxel or ABT - 737/ABT-199 w ere us ed at or below IC 50 . The combinational index (CI) w as calculat ed as previousl y described (Chou, 2006). […]
(§5) Cell cycl e pro gr ession in the absence (sham) o r pr esence o f compound(s ) was determined with a Beckman Coulter Epics Elite FC 500 Flow C ytom eter as described previousl y (Romero

MCF 10A = assay: SRB cell survival, MCF 10A isogenic lines; details: 0.39 μmol/L; MCF 10A (non-cancer)
Experimental: as §1, §2, §3, §4, §5

MCF 10CA1a = assay: SRB cell survival, MCF 10A isogenic lines; details: 0.39 μmol/L; MCF 10AC1a (fully malignant)
Experimental: as §1, §2, §3, §4, §5

MDR1 = assay: Rh123 dye efflux assay, KB-C-2 cells; details: MDR1, KB-C-2 cells; 22 µmol/L of drug; DMSO control 58.0%
Experimental: (§6) Rhodamine123 (Rh123) drug efflux was carried out using a Multidrug-Resistance Direct Dye Efflux Activity Kit (Millipore, Darmstadt, Germany), with some modifications. […] Reading was carried out with a Beckman Coulter FC500 flow cytometer.

MRP1 = target: T1, MRP1 (Homo sapiens, UniProt P33527); assay: Rh123 dye efflux assay, HEK293-MRP1 cells; details: 22 µmol/L of drug, DMSO control 39.6%
T1 construct: expressed in transfected cells; host or cells: HEK293-MRP1 (gift of Dr. Susan Cole)
T1 sequence (P33527 whole entry): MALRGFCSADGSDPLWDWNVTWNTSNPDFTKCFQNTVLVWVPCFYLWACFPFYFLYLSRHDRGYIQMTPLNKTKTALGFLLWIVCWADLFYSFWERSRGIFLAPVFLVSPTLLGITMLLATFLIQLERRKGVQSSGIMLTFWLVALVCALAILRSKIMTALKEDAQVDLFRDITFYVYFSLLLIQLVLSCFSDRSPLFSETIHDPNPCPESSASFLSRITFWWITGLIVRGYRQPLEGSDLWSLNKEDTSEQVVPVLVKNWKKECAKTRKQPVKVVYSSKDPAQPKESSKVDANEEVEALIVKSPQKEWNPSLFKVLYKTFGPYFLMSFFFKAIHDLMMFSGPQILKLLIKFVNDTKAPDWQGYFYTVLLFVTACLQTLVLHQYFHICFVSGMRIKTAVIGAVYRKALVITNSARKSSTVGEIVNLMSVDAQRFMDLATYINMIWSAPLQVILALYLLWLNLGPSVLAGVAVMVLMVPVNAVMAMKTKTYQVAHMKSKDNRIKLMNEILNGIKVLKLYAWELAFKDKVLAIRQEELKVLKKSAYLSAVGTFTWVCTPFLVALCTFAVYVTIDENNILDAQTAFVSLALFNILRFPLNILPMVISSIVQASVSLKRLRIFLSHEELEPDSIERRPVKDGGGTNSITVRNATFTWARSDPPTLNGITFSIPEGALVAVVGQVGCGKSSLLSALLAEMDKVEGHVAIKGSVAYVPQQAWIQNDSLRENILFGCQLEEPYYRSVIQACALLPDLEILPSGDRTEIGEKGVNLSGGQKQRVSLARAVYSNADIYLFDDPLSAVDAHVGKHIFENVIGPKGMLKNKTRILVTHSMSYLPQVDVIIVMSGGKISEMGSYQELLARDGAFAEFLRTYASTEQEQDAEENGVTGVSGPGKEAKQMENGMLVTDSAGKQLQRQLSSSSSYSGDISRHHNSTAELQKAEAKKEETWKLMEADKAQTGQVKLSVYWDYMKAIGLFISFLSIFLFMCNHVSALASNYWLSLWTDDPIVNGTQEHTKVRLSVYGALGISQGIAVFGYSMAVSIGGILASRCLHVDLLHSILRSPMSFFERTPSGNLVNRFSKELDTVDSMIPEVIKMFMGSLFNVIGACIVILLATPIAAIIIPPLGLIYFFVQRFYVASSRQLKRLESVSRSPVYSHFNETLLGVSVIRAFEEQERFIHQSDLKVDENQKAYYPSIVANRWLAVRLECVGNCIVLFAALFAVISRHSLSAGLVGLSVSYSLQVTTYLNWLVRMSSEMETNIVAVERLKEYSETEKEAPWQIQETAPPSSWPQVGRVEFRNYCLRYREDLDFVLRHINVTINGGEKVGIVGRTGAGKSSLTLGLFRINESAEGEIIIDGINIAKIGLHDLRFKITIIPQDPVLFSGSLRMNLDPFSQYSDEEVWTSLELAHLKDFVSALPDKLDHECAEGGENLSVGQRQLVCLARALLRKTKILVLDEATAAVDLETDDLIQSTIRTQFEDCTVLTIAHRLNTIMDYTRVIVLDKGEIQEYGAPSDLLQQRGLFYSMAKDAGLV
Experimental: as §6

IGROV1 = assay: NCI-60 SRB screen
MDA-MB-231/ATCC = assay: NCI-60 SRB screen
NCI-H23 = assay: NCI-60 SRB screen
SNB-19 = assay: NCI-60 SRB screen
UACC-257 = assay: NCI-60 SRB screen
[1] = Homo sapiens, read-out: LC50 (the source's name)

## COc1ccc2[nH]c(=O)c(/C=C/C(=O)c3ccccc3OC)cc2c1 [CTR-20, (E)-6-Methoxy-3-(3-(2-methoxyphenyl)-3-oxoprop-1-enyl) quinolin-2(1H)-one]
MCF 10AT1
  cell survival rate: 20%
MCF 10A
  cell survival rate: 75%
MCF 10CA1a
  cell survival rate: 10%
MDR1
  Rh123 retention: 57.9%
MRP1
  Rh123 retention: 81.7%
IGROV1
  Log10GI50: -6.24 Molar
  Log10LC50: > -4.00 Molar
  Log10TGI: -4.77 Molar
  TGI: 1.70E-5 Molar
IGROV1; 1.00E-5 Molar
  Growth Percent: 14.55%
IGROV1; Homo sapiens, IGROV-1
  GI50: 0.582 µM
IGROV1; Homo sapiens, IGROV-1, read-out: LC50 (the source's name)
  CC50: > 100 µM
IGROV1; Log10 Concentration -4.0
  Percent Growth: -27%
IGROV1; Log10 Concentration -5.0
  Percent Growth: 8%
IGROV1; Log10 Concentration -6.0
  Percent Growth: 40%
IGROV1; Log10 Concentration -7.0
  Percent Growth: 82%
IGROV1; Log10 Concentration -8.0
  Percent Growth: 99%
MDA-MB-231/ATCC
  Log10GI50: -5.84 Molar
  Log10LC50: -4.40 Molar
  Log10TGI: -4.96 Molar
  TGI: 1.10E-5 Molar
MDA-MB-231/ATCC; 1.00E-5 Molar
  Growth Percent: 0.32%
MDA-MB-231/ATCC; Homo sapiens
  GI50: 1.44 µM
MDA-MB-231/ATCC; [1]
  CC50: 39.6 µM
MDA-MB-231/ATCC; Log10 Concentration -4.0
  Percent Growth: -86%
MDA-MB-231/ATCC; Log10 Concentration -5.0
  Percent Growth: 4%
MDA-MB-231/ATCC; Log10 Concentration -6.0
  Percent Growth: 59%
MDA-MB-231/ATCC; Log10 Concentration -7.0
  Percent Growth: 102%
MDA-MB-231/ATCC; Log10 Concentration -8.0
  Percent Growth: 102%
NCI-H23
  Log10GI50: -5.88 Molar
  Log10LC50: -4.66 Molar
  Log10TGI: -5.41 Molar
  TGI: 3.93E-6 Molar
NCI-H23; 1.00E-5 Molar
  Growth Percent: 21.29%
NCI-H23; Homo sapiens
  GI50: 1.33 µM
NCI-H23; [1]
  CC50: 21.6 µM
NCI-H23; Log10 Concentration -4.0
  Percent Growth: -64%
NCI-H23; Log10 Concentration -5.0
  Percent Growth: -43%
NCI-H23; Log10 Concentration -6.0
  Percent Growth: 63%
NCI-H23; Log10 Concentration -7.0
  Percent Growth: 87%
NCI-H23; Log10 Concentration -8.0
  Percent Growth: 88%
SNB-19
  Log10GI50: -6.44 Molar
  Log10LC50: -5.05 Molar
  Log10TGI: -5.75 Molar
  TGI: 1.79E-6 Molar
SNB-19; 1.00E-5 Molar
  Growth Percent: 17.04%
SNB-19; Homo sapiens
  GI50: 0.362 µM
SNB-19; [1]
  CC50: 8.88 µM
SNB-19; Log10 Concentration -4.0
  Percent Growth: -89%
SNB-19; Log10 Concentration -5.0
  Percent Growth: -54%
SNB-19; Log10 Concentration -6.0
  Percent Growth: 18%
SNB-19; Log10 Concentration -7.0
  Percent Growth: 90%
SNB-19; Log10 Concentration -8.0
  Percent Growth: 98%
UACC-257
  Log10GI50: -5.86 Molar
  Log10LC50: -5.17 Molar
  Log10TGI: -5.52 Molar
  TGI: 3.05E-6 Molar
UACC-257; 1.00E-5 Molar
  Growth Percent: 37.62%
UACC-257; Homo sapiens
  GI50: 1.38 µM
UACC-257; [1]
  CC50: 6.75 µM
UACC-257; Log10 Concentration -4.0
  Percent Growth: -100%
UACC-257; Log10 Concentration -5.0
  Percent Growth: -75%
UACC-257; Log10 Concentration -6.0
  Percent Growth: 70%
UACC-257; Log10 Concentration -7.0
  Percent Growth: 101%
UACC-257; Log10 Concentration -8.0
  Percent Growth: 98%
